≈ marks a conversion by molar mass, not a printed value. Like-named read-outs stand apart in the source and are kept apart here.
Legend:
[1] = system: PKB Ser473 phosphorylation in Rat1-myr-HA-p110 delta cells; assay: Reverse protein array assay, PKB Ser473 phosphorylation in Rat1-myr-p110 delta cells; assay type: cell-based; conditions: read-out: p-PKB IC50
Method in brief: (§1)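 After at least 20 h of culture, the p110 isoform-transfected Rat1 lines receive compound in an 8-step dilution series, keeping DMSO at 0.2%, for 30 minutes. Cells are then lysed and lysates arrayed on chips for fluorescence detection of Ser473-phosphorylated PKB.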

[2] = Solubility at pH 6.8; assay type: physicochemical
Method in brief: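 Following the procedure of Zhou et al. (2007), compound solubility was determined at pH 6.8.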

[3] = system: PKB Ser473 phosphorylation in Rat1-myr-HA-p110 beta cells; assay: Reverse protein array assay, PKB Ser473 phosphorylation in Rat1-myr-p110 beta cells; assay type: cell-based; conditions: 0.5 h, pAkt Ser473, 30 minutes incubation, read-out: p-PKB IC50
Method in brief: as §1

[4] = biological target: T1, PI3K alpha (Homo sapiens, UniProt P42336); assay: PI3K alpha kinase assay (Kinase-Glo luminescence); assay type: biochemical
T1 construct: p85(iSH2) fusion partner (see partner chain) (N); His tag (C); made in house; host or cells: baculovirus; Tn5 (Trichoplusia ni) or TiniPro insect cells
T1 sequence (P42336 with tags, fused parts or gaps limits assumed): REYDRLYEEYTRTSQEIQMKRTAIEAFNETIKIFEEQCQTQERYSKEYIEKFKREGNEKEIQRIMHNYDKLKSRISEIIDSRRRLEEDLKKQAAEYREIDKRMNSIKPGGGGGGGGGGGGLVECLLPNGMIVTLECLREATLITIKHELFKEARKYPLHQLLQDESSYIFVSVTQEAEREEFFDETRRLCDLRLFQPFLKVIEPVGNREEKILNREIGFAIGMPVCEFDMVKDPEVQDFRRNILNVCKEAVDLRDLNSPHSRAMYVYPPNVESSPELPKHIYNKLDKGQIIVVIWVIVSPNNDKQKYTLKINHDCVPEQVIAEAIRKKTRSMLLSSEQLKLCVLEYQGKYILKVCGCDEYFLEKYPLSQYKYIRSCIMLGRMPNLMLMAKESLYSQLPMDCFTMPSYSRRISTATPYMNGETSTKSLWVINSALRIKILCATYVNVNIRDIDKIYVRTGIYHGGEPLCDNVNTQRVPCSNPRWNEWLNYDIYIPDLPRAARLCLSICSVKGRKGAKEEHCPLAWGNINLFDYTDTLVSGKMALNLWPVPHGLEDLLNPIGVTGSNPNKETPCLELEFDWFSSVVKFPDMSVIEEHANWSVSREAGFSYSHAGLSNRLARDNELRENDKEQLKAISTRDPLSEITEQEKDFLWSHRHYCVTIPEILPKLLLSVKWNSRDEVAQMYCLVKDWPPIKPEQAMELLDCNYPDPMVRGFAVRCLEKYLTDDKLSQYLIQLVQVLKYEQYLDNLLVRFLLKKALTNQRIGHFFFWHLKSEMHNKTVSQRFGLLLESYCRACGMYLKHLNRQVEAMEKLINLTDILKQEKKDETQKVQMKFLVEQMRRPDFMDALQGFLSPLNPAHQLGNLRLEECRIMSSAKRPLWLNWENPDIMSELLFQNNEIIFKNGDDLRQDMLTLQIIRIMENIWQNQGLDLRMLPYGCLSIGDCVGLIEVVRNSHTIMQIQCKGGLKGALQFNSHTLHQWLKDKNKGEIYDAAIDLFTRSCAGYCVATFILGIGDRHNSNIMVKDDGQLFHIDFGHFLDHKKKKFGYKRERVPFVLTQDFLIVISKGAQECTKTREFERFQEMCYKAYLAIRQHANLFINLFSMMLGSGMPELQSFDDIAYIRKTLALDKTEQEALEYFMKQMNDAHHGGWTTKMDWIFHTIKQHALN
Method in brief: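 Luminescent ATP-depletion assay (Kinase-Glo) with 10 nM PI3Kα and 10 μg/mL phosphatidylinositol as lipid substrate at 1 μM ATP. Incubation lasts 60 min at room temperature.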

[5] = pH 6.8, aqueous buffer, thermodynamic from solid, read-out: solubility

Cc1nn(C)cc1-n1c(=O)n(C)c2cnc3ccc(-c4cncc(C(C)(C)C#N)c4)cc3c21 [Example 220.1, 2-{5-[1-(1,3-Dimethyl-1H-pyrazol-4-yl)-3-methyl-2-oxo-2,3-dihydro-1H-imidazo[4,5-c]quinolin-8-yl]-pyridin-3-yl}-2-methyl-propionitrile]
IC50 [1]: 23 nM | solubility ([2]; pH 6.8): 2 µg/mL (≈ 4.57 µM) | IC50 [3]: 18 nM | IC50 [4]: 9 nM

CNC(=O)c1cc(-c2ccc3ncc4c(c3c2)n(-c2cn(C(C)C)nc2C)c(=O)n4C)cnc1N [Example 224.2, 2-Amino-5-[1-(1-isopropyl-3-methyl-1H-pyrazol-4-yl)-3-methyl-2-oxo-2,3-dihydro-1H-imidazo[4,5-c]quinolin-8-yl]-N-methyl-nicotinamide]
IC50 [1]: 132 nM | solubility [2, 5]: 16 µg/mL (≈ 34 µM) | IC50 [3]: 130 nM | IC50 [4]: 93 nM

COc1ncc(-c2ccc3ncc4c(c3c2)n(-c2cn(C)nc2C)c(=O)n4C)c(OC)n1 [Example 234.2, 8-(2,4-Dimethoxy-pyrimidin-5-yl)-1-(1,3-dimethyl-1H-pyrazol-4-yl)-3-methyl-1,3-dihydro-imidazo[4,5-c]quinolin-2-one]
IC50 [1]: 23 nM | solubility [2, 5]: 22 µg/mL (≈ 51 µM) | IC50 [3]: 26 nM | IC50 [4]: < 3 nM

CCn1cc(-n2c(=O)n(C)c3cnc4ccc(-c5cnc(NC)nc5OC)cc4c32)c(C)n1 [Example 236, 1-(1-Ethyl-3-methyl-1H-pyrazol-4-yl)-8-(4-methoxy-2-methylamino-pyrimidin-5-yl)-3-methyl-1,3-dihydro-imidazo[4,5-c]quinolin-2-one]
IC50 [1]: 13 nM | solubility ([2]; pH 6.8): 2 µg/mL (≈ 4.5 µM) | IC50 [3]: 6 nM | IC50 [4]: 15 nM

COc1ccc(-c2ccc3ncc4[nH]c(=O)n(-c5cn(C)nc5C)c4c3n2)cc1OC [Example 249, 8-(3,4-dimethoxy-phenyl)-1-(1,3-dimethyl-1H-pyrazol-4-yl)-1,3-dihydro-1,3,5,9-tetraaza-cyclopenta[a]naphthalen-2-one]
IC50 [1]: 29 nM | solubility [2, 5]: 16 µg/mL (≈ 38.4 µM) | IC50 [3]: 22 nM | IC50 [4]: 5 nM

COc1ccc(-c2ccc3ncc4c(c3n2)n(-c2cn(C)nc2C)c(=O)n4C)cc1OC [Example 250, 8-(3,4-Dimethoxy-phenyl)-1-(1,3-dimethyl-1H-pyrazol-4-yl)-3-methyl-1,3-dihydro-1,3,5,9-tetraaza-cyclopenta[a]naphthalen-2-one]
IC50 [1]: 118 nM | solubility [2, 5]: 5 µg/mL (≈ 11.6 µM) | IC50 [3]: 97 nM | IC50 [4]: 5 nM

From patent US20140005163A1 (NOVARTIS AG, priority 2010, published 2014)
